The source of these data is patent US4472304A, “(Amido)N-substituted bleomycins, salts thereof and process for preparation thereof” (Nippon Kayaku Kabushiki Kaisha, priority 1981, dated 1984).

Series [1] relates to Mycobacterium smegmatis ATCC 607. Briefly: Antimicrobial activity against Mycobacterium smegmatis ATCC 607 (agar plate-cylinder). It is filed as cell-based. The settings on record: standard bleomycin A2 (copper-free) assumed 1,000 mcg potency/mg. As to the method: (§1) 2. ANT[…] MYC[…] ATCC 607 AND BACILLUS SUBTILIS
(§2) The antimicrobial activity was tested against the captioned test organisms by the method of agar plate-cylinder. The activity was recorded on the assumption that the activity of standard sample of bleomycin A2 (copper-free form) is 1,000 mcg poteney/mg.

The subject of series [2] is Bacillus subtilis. The series is described as follows: Antimicrobial activity against Bacillus subtilis (agar plate-cylinder). Type of series: cell-based. The settings on record: standard bleomycin A2 (copper-free) assumed 1,000 mcg potency/mg. As to the method:
as §1, §2

In series [3] the test system is pulmonary fibrosis. The series is described as follows: Pulmonary toxicity (pulmonary fibrosis) in mice. The settings on record: for Incidence: Number of mice with pulmonary fibrosis (%) / Incidence: Number of mice with pulmonary fibrosis / Grade: Total score of pulmonary fibrosis/total number of samples / Grade: Total score of pulmonary fibrosis/total number of samples (%): ICR mice, 5 mg/kg i.p. once a day for 10 days; for Incidence: Number of mice with pulmonary fibrosis (%) / Incidence: Number of mice with pulmonary fibrosis: 5 weeks observation; for Incidence: Number of mice with pulmonary fibrosis: mice with fibrosis/total; for Grade: Total score of pulmonary fibrosis/total number of samples / Grade: Total score of pulmonary fibrosis/total number of samples (%): points 0, 1, 2, 4, 6; for Ratio (by comparison with "Bleomycin Complex"): versus Bleomycin Complex.

SMILES strings stand for the structures.

On to `Cc1c(N)nc(C(CC(N)=O)NCC(N)C(=O)NC(C)C)nc1C(=O)NC(C(=O)NC(C)C(O)C(C)C(=O)NC(C(=O)NCCc1nc(-c2nc(C(=O)NCCCNC(C)c3ccccc3)cs2)cs1)C(C)O)C(OC1OC(CO)C(O)C(O)C1OC1OC(CO)C(O)C(OC(N)=O)C1O)c1cnc[nH]1` [Compound 21, 3-((S)-1'-phenylethyl)aminopropylamino-(amido)N--[isopropyl]-BLM], for which the “Antimicrobial potency of Cu-free compound against Mycobacterium smegmatis ATCC 607” value in series [1] is 11998 mcg potency/mg. The “Antimicrobial potency of Cu-free compound against Bacillus subtilis” value in series [2] turned out to be 962 mcg potency/mg. In series [3], the “Incidence: Number of mice with pulmonary fibrosis (%)” value (“Incidence: Number of mice … (%)” for short) is 38%, the “Incidence: Number of mice with pulmonary fibrosis” value was 3/8, the “Grade: Total score of pulmonary fibrosis/total number of samples” value is listed as 5/24 and the “Grade: Total score of pulmonary fibrosis/total number of samples (%)” value came out at 21%. Further, the “Ratio (by comparison with "Bleomycin Complex")” value (“Ratio” below) in series [3] amounted to 0.27.
As to `Cc1c(N)nc(C(CC(N)=O)NCC(N)C(=O)NCCCNC(C)c2ccccc2)nc1C(=O)NC(C(=O)NC(C)C(O)C(C)C(=O)NC(C(=O)NCCc1nc(-c2nc(C(=O)NCCCNC(C)c3ccccc3)cs2)cs1)C(C)O)C(OC1OC(CO)C(O)C(O)C1OC1OC(CO)C(O)C(OC(N)=O)C1O)c1cnc[nH]1` [Compound 22, 3-((S)-1'-phenylethyl)aminopropylamino-(amido)N--[3-((S)-1'-phenylethyl)aminopropyl]-BLM], the “Antimicrobial potency of Cu-free compound against Mycobacterium smegmatis ATCC 607” value in series [1] is 28030 mcg potency/mg. For the same compound, the “Antimicrobial potency of Cu-free compound against Bacillus subtilis” value in series [2] turned out to be 2800 mcg potency/mg. Further, in series [3], the “Incidence: Number of mice … (%)” value turned out to be 13%, the “Incidence: Number of mice with pulmonary fibrosis” value was 1/8, the “Grade: Total score of pulmonary fibrosis/total number of samples” value is given as 1/21 and the “Grade: Total score of pulmonary fibrosis/total number of samples (%)” value is 4%. Besides, in series [3], the “Ratio” value amounted to 0.05.
Consider `Cc1c(N)nc(C(CC(N)=O)NCC(N)C(=O)NCCN2CCNCC2)nc1C(=O)NC(C(=O)NC(C)C(O)C(C)C(=O)NC(C(=O)NCCc1nc(-c2nc(C(=O)NCCCNC(C)c3ccccc3)cs2)cs1)C(C)O)C(OC1OC(CO)C(O)C(O)C1OC1OC(CO)C(O)C(OC(N)=O)C1O)c1cnc[nH]1` [Compound 33, 3-((S)-1'-phenylethylamino)propylamino-(amido)N--[2-(1-piperazinyl)ethyl]-BLM], for which the “Antimicrobial potency of Cu-free compound against Mycobacterium smegmatis ATCC 607” value in series [1] amounted to 6359 mcg potency/mg. The “Antimicrobial potency of Cu-free compound against Bacillus subtilis” value in series [2] was 5009 mcg potency/mg. Moreover, in series [3], the “Incidence: Number of mice … (%)” value was 56%, the “Incidence: Number of mice with pulmonary fibrosis” value was 5/9, the “Grade: Total score of pulmonary fibrosis/total number of samples” value is reported as 11/27 and the “Grade: Total score of pulmonary fibrosis/total number of samples (%)” value came out at 41%. Besides, in series [3], the “Ratio” value worked out at 0.44.
As to `CCCCN(CCCC)CCCNC(=O)C(N)CNC(CC(N)=O)c1nc(N)c(C)c(C(=O)NC(C(=O)NC(C)C(O)C(C)C(=O)NC(C(=O)NCCc2nc(-c3nc(C(=O)NCCCNC(C)c4ccccc4)cs3)cs2)C(C)O)C(OC2OC(CO)C(O)C(O)C2OC2OC(CO)C(O)C(OC(N)=O)C2O)c2cnc[nH]2)n1` [Compound 34, 3-((S)-1'-phenylethylamino)propylamino-(amido)N--[3-(di-n-butylamino)propyl]-BLM], in series [1], the “Antimicrobial potency of Cu-free compound against Mycobacterium smegmatis ATCC 607” value came to 26023 mcg potency/mg. Further, the “Antimicrobial potency of Cu-free compound against Bacillus subtilis” value in series [2] is recorded as 2843 mcg potency/mg. In series [3], the “Incidence: Number of mice … (%)” value came to 0%, the “Incidence: Number of mice with pulmonary fibrosis” value was 0/8, the “Grade: Total score of pulmonary fibrosis/total number of samples” value is 0/24 and the “Grade: Total score of pulmonary fibrosis/total number of samples (%)” value amounted to 0%. For the same compound, the “Ratio” value in series [3] is reported as 0.
As for `CCCCNCCCN(C)CCCNC(=O)c1csc(-c2csc(CCNC(=O)C(NC(=O)C(C)C(O)C(C)NC(=O)C(NC(=O)c3nc(C(CC(N)=O)NCC(N)C(=O)NC(C)C)nc(N)c3C)C(OC3OC(CO)C(O)C(O)C3OC3OC(CO)C(O)C(OC(N)=O)C3O)c3cnc[nH]3)C(C)O)n2)n1` (stereo not drawn) [Compound 37, 3-[N--methyl-N--(3-n-butylaminopropyl)amino]propylamino-(amido)N--[isopropyl]-BLM], the “Antimicrobial potency of Cu-free compound against Mycobacterium smegmatis ATCC 607” value in series [1] is given as 13210 mcg potency/mg. Also, the “Antimicrobial potency of Cu-free compound against Bacillus subtilis” value in series [2] stood at 20048 mcg potency/mg. In series [3], the “Incidence: Number of mice … (%)” value was determined as 33%, the “Incidence: Number of mice with pulmonary fibrosis” value is recorded as 3/9, the “Grade: Total score of pulmonary fibrosis/total number of samples” value is 13/27 and the “Grade: Total score of pulmonary fibrosis/total number of samples (%)” value came to 48%. The “Ratio” value in series [3] is reported as 0.46.
In the case of `CCCCNCCCN(C)CCCNC(=O)c1csc(-c2csc(CCNC(=O)C(NC(=O)C(C)C(O)C(C)NC(=O)C(NC(=O)c3nc(C(CC(N)=O)NCC(N)C(=O)NCCCN(C)CCCNCCCC)nc(N)c3C)C(OC3OC(CO)C(O)C(O)C3OC3OC(CO)C(O)C(OC(N)=O)C3O)c3cnc[nH]3)C(C)O)n2)n1` (stereo not drawn) [Compound 38, 3-[N--methyl-N--(3-n-butylaminopropyl)amino]propylamino-(amido)N--{3-[N--methyl-N--(3-n-butylaminopropyl)amino]-propyl}-BLM], the “Antimicrobial potency of Cu-free compound against Mycobacterium smegmatis ATCC 607” value in series [1] is 5100 mcg potency/mg. The “Antimicrobial potency of Cu-free compound against Bacillus subtilis” value in series [2] stood at 6600 mcg potency/mg. Besides, in series [3], the “Incidence: Number of mice … (%)” value is on record as 71%, the “Incidence: Number of mice with pulmonary fibrosis” value was 5/7, the “Grade: Total score of pulmonary fibrosis/total number of samples” value was 7/21 and the “Grade: Total score of pulmonary fibrosis/total number of samples (%)” value came out at 33%. In addition, in series [3], the “Ratio” value was 0.32.
As to `Cc1c(N)nc(C(CC(N)=O)NCC(N)C(=O)NCCCNC(C)c2ccccc2)nc1C(=O)NC(C(=O)NC(C)C(O)C(C)C(=O)NC(C(=O)NCCc1nc(-c2nc(C(=O)NCCCN(C)CCCNCc3ccc(Cl)cc3)cs2)cs1)C(C)O)C(OC1OC(CO)C(O)C(O)C1OC1OC(CO)C(O)C(OC(N)=O)C1O)c1cnc[nH]1` [Compound 39, 3-{N--methyl-N--[3-(p-chlorobenzyl)aminopropyl]amino}-propylamino-(amino)N--[3-(S)-1'-phenylethyl)aminopropyl]-BLM], in series [1], the “Antimicrobial potency of Cu-free compound against Mycobacterium smegmatis ATCC 607” value was 14880 mcg potency/mg. Besides, the “Antimicrobial potency of Cu-free compound against Bacillus subtilis” value in series [2] was determined as 2590 mcg potency/mg. In addition, in series [3], the “Incidence: Number of mice … (%)” value was determined as 20%, the “Incidence: Number of mice with pulmonary fibrosis” value is listed as 2/9, the “Grade: Total score of pulmonary fibrosis/total number of samples” value is 2/27 and the “Grade: Total score of pulmonary fibrosis/total number of samples (%)” value came out at 7%. In addition, in series [3], the “Ratio” value is 0.07.
As for `Cc1c(N)nc(C(CC(N)=O)NCC(N)C(=O)NCCCNC(C)c2ccccc2)nc1C(=O)NC(C(=O)NC(C)C(O)C(C)C(=O)NC(C(=O)NCCc1nc(-c2nc(C(=O)NCCCN(C)CCCNCc3ccc(C#N)cc3)cs2)cs1)C(C)O)C(OC1OC(CO)C(O)C(O)C1OC1OC(CO)C(O)C(OC(N)=O)C1O)c1cnc[nH]1` [Compound 63, 3-{N--methyl-N--[3-(p-cyanobenzylamino)propyl]amino]propylamino-(amido)N--[(3-((S)-1'-phenylethylamino)propyl]-BLM], the “Antimicrobial potency of Cu-free compound against Mycobacterium smegmatis ATCC 607” value in series [1] is 21877 mcg potency/mg. The “Antimicrobial potency of Cu-free compound against Bacillus subtilis” value in series [2] is reported as 11056 mcg potency/mg.
